Reference: US12486271B2, “Solid forms of a toll-like receptor modulator” (GILEAD SCIENCES, INC., priority 2014, dated 2025)

Key:
[1] = Variable temperature XRD (VT XRD) experiment: form stability on cooling; format: physicochemical; conditions: cooled to 25° C. after generation by heating
Description: X-ray Powder Diffraction (XRPD). The Rigaku Smart-Lab® X-ray diffraction system was configured for reflection BraggBrentano geometry using a line source X-ray beam. The x-ray source is a Cu Long Fine Focus tube that was operated at 40 kV and 44 mA. That source provides an incident beam profile at the sample that changes from a narrow line at high angles to a broad rectangle at low angles. Beam conditioning slits were used on the line X-ray source to ensure that the maximum beam size is less than 10 mm both along the line and normal to the line. The Bragg-Brentano geometry is a para-focusing geometry controlled by passive divergence and receiving slits with the sample itself acting as the focusing component for the optics. The inherent resolution of Bragg-Brentano geometry is governed in part by the diffractometer radius and the width of the receiving slit used. Typically, the Rigaku Smart-Lab is operated to give peak widths of 0.1°2θ or less. The axial divergence of the X-ray beam is controlled by 5.0-degree Soller slits in both the incident and diffracted beam paths. Powder samples were prepared in a low background Si holder using light manual pressure to keep the sample surfaces flat and level with the reference surface of the sample holder. The single-crystal, Si, low-background holder has a small circular recess (7 mm diameter and about 1 mm depth) that holds between 5 and 10 mg of powdered material. Each sample was analyzed from 2 to 40°2θ using a continuous scan of 3°2θ per minute with an effective step size of 0.02°2θ. Form III was generated at 138° C. from Form I in a variable temperature XRD (VT XRD) experiment. […] Form III is characterized by the X-ray powder diffraction pattern in FIG. 9, and the differential scanning calorimetry plot in FIG. 11 showing endotherms at about 181 and 271° C. (decomposition). Form IV was generated between 95 and 110° C. from Form II in a variable temperature XRD experiment. […] is characterized by the X-ray powder diffraction pattern in FIG. 13.

[2] = Competition slurry experiment of Form I and Form III in methanol; format: physicochemical; conditions: 10 mg of each of Form I and Form III in methanol
HCV = conditions: once daily 7-day treatment, HCV infected patients; cited from earlier work

## CCCCOc1nc(N)c2c(n1)N(Cc1cccc(CN3CCCC3)c1)CC(=O)N2 [Form III, 4-amino-2-butoxy-8-(3-(pyrrolidin-1-ylmethyl)benzyl)-7,8-dihydropteridin-6(5H)-one]
[1]
  Solid form stability when cooled to 25° C. in variable temperature XRD: stable when cooled to 25 °C and does not convert back to Form I
[1]; listed as Compound I Form III
  Solid form stability when cooled to 25° C. in variable temperature XRD: remains as Form III
[2]
  Time for conversion of Form III back to Form I in competition slurry: ≤ 2 weeks

## CCCCOc1nc(N)c2c(n1)N(Cc1cccc(CN3CCCC3)c1)CC(=O)N2 [Form IV, 4-amino-2-butoxy-8-(3-(pyrrolidin-1-ylmethyl)benzyl)-7,8-dihydropteridin-6(5H)-one]
[1]
  Solid form stability when cooled to 25° C. in variable temperature XRD: converts back to Form II when cooled to 25 °C

## Nc1nc(=O)c2sc(=O)n([C@@H]3O[C@H](CO)[C@@H](O)[C@H]3O)c2[nH]1 [isatoribine]
HCV
  Plasma virus concentrations: reduces plasma virus concentrations
